The source of these data is ChEMBL document CHEMBL1201862, “PubChem BioAssay data set” (2004).

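Where inhibition never reached the appropriate level, the endpoint shown equals the highest concentration tested. Otherwise, values were interpolated linearly from a five-concentration, 48-hour dose response in 96-well plates. The concentration for 50% growth inhibition is given as GI50.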 Active and inactive are the calls of the source. No stated cut-off is given here; in the data, active = GI50 up to about 1.1 µM and inactive = higher. A value given as a limit tells only on which side of the number the result lay.

Holding throughout (test): NCI anticancer screen, dose series, 48 h
The subject of assay [1] is MDA-MB-231.
Assay [2] has as its system IGROV-1.
In assay [3] the test system is SNB-75.
For assay [4], the system named is OVCAR-3.
In assay [5] the test system is CCRF-CEM.
In assay [6] the test system is MDA-N.
Assay [7] has as its system MCF7.
Assay [8] has as its system RPMI-8226.
The subject of assay [9] is MOLT-4.
The subject of assay [10] is BT-549.
For assay [11], the system named is CAKI-1.
For assay [12], the system named is HOP-62.
Assay [13] concerns ACHN.
Assay [14] relates to SK-MEL-5.
For assay [15], the system named is LOX IMVI.
In assay [16] the test system is SF-268.
The subject of assay [17] is SW-620.
In assay [18] the test system is HOP-92.
For assay [19], the system named is SR.

Regarding `COc1ccc(N2C(=O)C3c4[nH]c5ccccc5c4C4C(C)CCCC4C3C2=O)cc1` (stereo not given), the GI50 in [1] is 20.4 µM (inactive); in assay [2], 10 µM (inactive); in assay [3] it was 19.7 µM (inactive); in assay [4] it was 26.1 µM (inactive); in assay [5] it was 5.66 µM (inactive); in assay [6], 3.19 µM (inactive). For the same compound, the GI50 in assay [7] is 37.2 µM (inactive); in [8] it was 12.8 µM (inactive); in assay [9], 7.21 µM (inactive); in assay [10], 3.64 µM (inactive); in [11], 36.1 µM (inactive); in assay [12], 23.6 µM (inactive). The GI50 in assay [13] is 47.8 µM (inactive); in assay [14], 35 µM (inactive); in [15], 46.5 µM (inactive); in [16], 41 µM (inactive); in assay [17], > 53 µM (inactive); in [18], 35.1 µM (inactive).

With `O=C(O)[C@@H]1CSCN1C(=O)[C@@H]1CCC(=S)N1`, the GI50 in assay [1], in [2], in assay [3], in [4], in [5] and in assay [6] was > 100 µM (inactive) throughout. For the same compound, the GI50 in assay [7], in assay [8], in assay [9], in assay [10], in [11] and in assay [12] was > 100 µM (inactive) in each case. The GI50 in [13], in assay [19], in [14], in assay [15], in assay [16] and in [17] was > 100 µM (inactive) in each case.

Regarding `Cc1cc(Cc2c(F)c(F)c(Cc3cc(C)no3)c(F)c2F)on1`, the GI50 in assay [1] is 46.6 µM (inactive); in [2] it was > 100 µM (inactive); in assay [3], 29 µM (inactive); in [4], > 100 µM (inactive); in assay [5], > 100 µM (inactive); in assay [6], > 100 µM (inactive). The GI50 was > 100 µM (inactive) in assay [7]; > 100 µM (inactive) in assay [8]; > 100 µM (inactive) in assay [9]; > 100 µM (inactive) in assay [10]; 12.2 µM (inactive) in assay [11]; 25.4 µM (inactive) in assay [12]. The GI50 was > 100 µM (inactive) in assay [13]; 28.4 µM (inactive) in assay [14]; 80.4 µM (inactive) in assay [15]; 21.7 µM (inactive) in assay [16]; 29 µM (inactive) in [18].

As to `C=CCNC(=O)/C(Cc1cc(Br)c(OC)c(Br)c1O)=N\O`, the GI50 was 6.73 µM (inactive) in assay [1]; 4.57 µM (inactive) in assay [2]; 2.38 µM (inactive) in [4]; 0.334 µM (active) in [6]; 4.17 µM (inactive) in [7]; 4.23 µM (inactive) in assay [8]. The GI50 in [9] is 4.76 µM (inactive); in [10] it was 3.03 µM (inactive); in assay [11] it was 5.18 µM (inactive); in assay [12] it was 2.79 µM (inactive); in assay [13] it was 13.4 µM (inactive); in [19] it was 1.17 µM (inactive). Besides, the GI50 in [14] was 1.78 µM (inactive); in assay [15], 5.68 µM (inactive); in [16], 3.58 µM (inactive); in assay [17], 3.15 µM (inactive); in [18], 4.65 µM (inactive).

`O=P1(O)c2ccccc2CSCc2ccccc21`: the GI50 in assay [1], in assay [2], in [4], in [5], in assay [6] and in assay [7] was > 100 µM (inactive) each time. Besides, the GI50 in assay [9], in [10], in assay [11], in assay [12], in [13] and in assay [19] was > 100 µM (inactive) each time. Besides, the GI50 in assay [14], in assay [15], in assay [16], in assay [17] and in assay [18] was > 100 µM (inactive) in each case.

Regarding `CNC(=O)OCCN1c2ccccc2Sc2ccccc21`, the GI50 is 0.64 µM (active) in assay [1]; 42.1 µM (inactive) in assay [2]; 63.2 µM (inactive) in assay [4]; > 100 µM (inactive) in assay [5]; > 100 µM (inactive) in assay [6]; > 100 µM (inactive) in assay [7]. Also, the GI50 in assay [9] is > 100 µM (inactive); in assay [10] it was > 100 µM (inactive); in [11], 36.4 µM (inactive); in assay [12], 14.1 µM (inactive); in assay [13], 73.6 µM (inactive); in [19], > 100 µM (inactive). Besides, the GI50 in assay [14] is 50.4 µM (inactive); in [15], 91.6 µM (inactive); in [16], > 100 µM (inactive); in assay [17], > 100 µM (inactive); in assay [18], 50.4 µM (inactive).

As to `COc1cc2c(cc1Cl)[n+]([O-])c(C#N)c(N1CCN(c3ccc([N+](=O)[O-])cc3)CC1)[n+]2[O-]`, the GI50 in assay [1] is 41.8 µM (inactive); in assay [2], 2.17 µM (inactive); in [3], 17.4 µM (inactive); in [4], 52.6 µM (inactive); in assay [5], 8.73 µM (inactive); in assay [6], 24 µM (inactive). Moreover, the GI50 in assay [7] was 6 µM (inactive); in assay [8], 0.631 µM (active); in assay [9], 5 µM (inactive); in assay [10], 15 µM (inactive); in assay [11] it was 48.5 µM (inactive); in assay [12] it was 8.34 µM (inactive). Moreover, the GI50 in assay [13] is 14.7 µM (inactive); in assay [19] it was 2.86 µM (inactive); in assay [14] it was 16.6 µM (inactive); in [15], 4.68 µM (inactive); in assay [16], 13.1 µM (inactive); in [17] it was 22.5 µM (inactive).

For `COc1cc2ccnc3c2c(c1O)N(C)C=C3`, the GI50 is 22.1 µM (inactive) in [1]; 6.11 µM (inactive) in assay [2]; 21.5 µM (inactive) in [3]; 4.62 µM (inactive) in assay [4]; 3.88 µM (inactive) in assay [5]; 3.91 µM (inactive) in assay [6]. Further, the GI50 in assay [7] is 7.35 µM (inactive); in assay [8], 4.18 µM (inactive); in assay [9], 4.26 µM (inactive); in assay [10] it was 9.08 µM (inactive); in assay [11] it was 4.92 µM (inactive); in [12] it was 22 µM (inactive). Besides, the GI50 in assay [13] is 9.48 µM (inactive); in assay [14] it was 12.8 µM (inactive); in assay [15] it was 8.39 µM (inactive); in assay [16], 17.7 µM (inactive); in assay [17], 12 µM (inactive); in assay [18] it was 21.2 µM (inactive).
